Data on one substance can be found in US20030135033A1, “Compounds and methods for the identification and/ or validation of a target” (priority 2002, published 2003).

The subject of this series is 3Y1 cells. In words: UV-induced apoptosis in 3Y1 cells after GeneBloc treatment (cleaved caspase 3). It counts as cell-based, rat. Conditions: 48 h GeneBloc treatment, UV irradiation. The text has this: Activation of the P13K pathway interferes with caspase-mediated apoptosis through Akt-activation. Apoptotic stimuli may either be cytokines like TNF, or UV-irradiation. In the present example of which the results of a Western blot analysis are shown in FIG. 7B, UV-irradiation was used as to induce apoptosis. PTEN is an inhibitor of PI-3K action. […] Activated Akt blocks caspases-mediated apoptosis. Apoptosis was monitored by the presence of cleaved Caspase 3.
If knock down of PTEN expression mediated by third generation antisense molecules (GeneBlocs) results in a functional activation of PI 3-kinase signalling, then increased phosphorylation and activation of Akt should interfere with the effects of apoptotic stimuli. […] It was previously shown that rat embryo fibroblasts undergo apoptosis after UV irradiation and that this response can be inhibited by activation of the PI 3-kinase pathway, and specifically by activated Akt (Kulik, G., Klippel, A. and Weber, M. J. (1997). Antiapoptotic signalling by the insulin-like growth factor I receptor, phosphatidylinositol 3-kinase, and Akt. Mol Cell Biol 17, 1595-1606)). We exposed 3Y1 cells to UV light after 48 h GeneBloc treatment. 3 h after irradiation cell extracts were harvested and analyzed for the presence of cleaved caspase 3 which is indicative for apoptosis. […] Cells which were not exposed to UV light after transfection contained very little amounts of cleaved caspase 3.

For the substance “ucuccuuTTGTTTCTGcuaacga (UCUCCUUTTGTTTCTGCUAACGA; chemistry not fully specified) [PTEN 53, third generation antisense oligonucleotide (GeneBloc) against PTEN]”, the “phosphorylated Akt” value is given as “phosphorylated Akt is generated”.
